Experimental data from US11911396B2, “Use of compound in preparation of drug for treating cerebral small vessel disease” (GUANGZHOU CELLPROTEK PHARMACEUTICAL CO., LTD, priority 2017, dated 2024).

Assays:
CD163 [1] = assay: Western blot of CD163 in prefrontal cortex brain tissue, acute hypobaric hypoxia model; type: in vivo, cynomolgus monkeys; conditions: FIGS. 4A and 4B
From the text: FIG. 4. Triol enhanced the clearance of free hemoglobin in brain tissue by up-regulating CD163 and Heme Oxygenase-1 (HO-1) protein levels. A. Protein expression of hemoglobin scavenger receptor CD163 and heme oxygenase HO-1 in the brain tissue of the prefrontal cortex of cynomolgus monkeys; B. Statistics of protein relative gray scan values. The gray value was obtained by scanning with Image Lab software, and the relative value was obtained after normalizing with α-Tubulin. NN: Normobaric Normoxia group (N=3); HH: Hypobaric Hypoxia group (N=3); HH+Triol: Hypobaric Hypoxia with Triol administration group (N=3); HH+PROG: Hypobaric Hypoxia with progesterone administration group (N=3). […]
1) Preparation of protein samples (see the instructions of M-PER protein lysate): After the cells had been processed for the specified time, the medium was aspirated and then washed with 4° C. pre-chilled PBS (0.01M pH7.2˜7.3) for 3 times. […] 2) BCA protein quantification (see the instructions of BCA protein quantification kit): corresponding components were added to a 96-well detection plate by the ratio of quantification reagent A solution:B solution:ddH2O:protein=100:2:7.5:5, and albumin standards diluted in gradient concentration were added to draw a standard curve. […] After the reaction, the absorbance of each well at a wavelength of 562 nm was detected using a microplate reader. […]

CD163 [2] = assay: Immunofluorescence of CD163 in prefrontal cortex brain tissue, acute hypobaric hypoxia model; type: in vivo, cynomolgus monkeys; conditions: FIGS. 5A and 5B
From the text: FIG. 5. […] A. Immunofluorescence imaging of CD163 and Iba-1 in the brain tissue of cynomolgus monkeys. B. Statistics of relative fluorescence intensity of CD163 and Iba-1. C. Correlation analysis of relative fluorescence intensity of CD163 and Iba-1. NN: Normobaric Normoxia group; HH: Hypobaric Hypoxia group; HH+Triol: Hypobaric Hypoxia with Triol administration group; HH+PROG: Hypobaric Hypoxia with progesterone administration group. One-way ANOVA analysis and Dunnutt's t test were used to perform statistical tests, and in the latter each group was compared with the HH group, ***, p<0.001.
The thickness of paraffin sections was 5 μm. For fresh paraffin sections, the sections were dried at 37° C. overnight and then dried at 55° C. for 30 minutes. The sections were quickly placed in xylene for dewaxing. After fully dewaxing with xylene for 10 min for 3 times, absolute ethanol-95% ethanol-90% ethanol-80% ethanol-70% ethanol-50% ethanol-ddH2O were successively used for gradient rehydration. After rehydration, the sections were placed in EDTA antigen repair solution for microwave high temperature repair. After the repair was completed, it was allowed naturally cool down to room temperature. […] NIS-Elements Analysis software was used to analyze the fluorescence intensity of confocal images, which was then normalized with the fluorescence intensity per unit area according to the built-in scale. […]

In the case of `C[C@@]12CCCC1C1C[C@@H](O)[C@@]3(O)C[C@@H](O)CC[C@]3(C)C1CC2` (stereo partly drawn) [Triol, 5α-androst-3β,5,6β-triol], the “down-regulation of CD163 expression caused by acute hypobaric hypoxia” value (CD163 [1]) was “significantly restored” and the “down-regulation of CD163 expression caused by acute hypobaric hypoxia” value (CD163 [2]) was “significantly restored”.
